Assay results taken from PubChem BioAssay AID296 (DTP/NCI, 2004).
Several values for one entry are separate records, joined by “and”; a condition that tells them apart may be missing. Identical values can stand only once. Results filed as inconclusive are left out.

Test system: MX-1 breast xenograft, nude mice, tumor weight T/C
Assay: NCI In Vivo Anticancer Drug Screen. Data for tumor model Human Mammary Carcinoma MX-1 Xenograft (intrarenal inoculation) in NU/NU Swiss (nude) mice
Conditions: endpoint: mean tumor weight change, higher = larger tumour
In short: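 Compound dosed to mice with transplantable tumor; vehicle group as control. Endpoint survival or tumour size, reported as T/C.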

[1] = dose: 300.0 mg/kg/injection, schedule: Q04DX003 (sc), vehicle: Klucel (hydroxypropylcellulose) (HPC)
[2] = dose: 600.0 mg/kg/injection, schedule: Q04DX003 (sc), vehicle: Klucel (hydroxypropylcellulose) (HPC)
[3] = dose: 100.0 mg/kg/injection, schedule: Q04DX003 (sc), vehicle: saline
[4] = dose: 300.0 mg/kg/injection, schedule: Q04DX003 (sc), vehicle: saline with Tween-80
[5] = dose: 600.0 mg/kg/injection, schedule: Q04DX003 (sc), vehicle: saline with Tween-80
[6] = dose: 1200.0 mg/kg/injection, schedule: Q04DX003 (sc), vehicle: saline with Tween-80
[7] = dose: 2400.0 mg/kg/injection, schedule: Q04DX003 (sc), vehicle: saline with Tween-80
[8] = dose: 37.5 mg/kg/injection, schedule: Q04DX003 (sc), vehicle: saline with Tween-80
[9] = dose: 75.0 mg/kg/injection, schedule: Q04DX003 (sc), vehicle: saline with Tween-80
[10] = dose: 150.0 mg/kg/injection, schedule: Q04DX003 (sc), vehicle: Klucel (hydroxypropylcellulose) (HPC)

CSc1ncc2ncn(C3OC(CO)C(O)C3O)c2n1 (centres undefined)
T/C [1]: 56 % of control
T/C [2]: 59 % of control
T/C (dose: 1200.0 mg/kg/injection, schedule: Q04DX003 (sc), vehicle: Klucel (hydroxypropylcellulose) (HPC)): 37 % of control
T/C (dose: 2400.0 mg/kg/injection, schedule: Q04DX003 (sc), vehicle: Klucel (hydroxypropylcellulose) (HPC)): 68 % of control

CN1CCN(c2ccc3nc(-c4ccc5nc(-c6ccc(O)cc6)[nH]c5c4)[nH]c3c2)CC1
T/C [3]: 69 % of control
T/C (dose: 225.0 mg/kg/injection, schedule: Q04DX003 (sc), vehicle: saline): 100 % of control
T/C (dose: 225.0 mg/kg/injection, schedule: Q04DX003 (sc), vehicle: suspension in saline): 102 % of control
T/C (dose: 250.0 mg/kg/injection, schedule: Q04DX003 (sc), vehicle: suspension in saline): 67 % of control
T/C (dose: 400.0 mg/kg/injection, schedule: Q04DX003 (sc), vehicle: saline): 52 % of control
T/C (dose: 500.0 mg/kg/injection, schedule: Q04DX003 (sc), vehicle: saline): 123 % of control
T/C (dose: 800.0 mg/kg/injection, schedule: Q04DX003 (sc), vehicle: suspension in saline): 176 % of control
T/C (dose: 1000.0 mg/kg/injection, schedule: Q04DX003 (sc), vehicle: saline): 69 % of control
T/C (dose: 1000.0 mg/kg/injection, schedule: Q04DX003 (sc), vehicle: suspension in saline): 199 % of control

CC(C)(C)N1CC1CNC(=O)C(=O)NCC1CN1C(C)(C)C (centres undefined)
T/C (dose: 50.0 mg/kg/injection, schedule: Q04DX003 (sc), vehicle: saline with Tween-80): -41 % of control and -29 % of control

COc1ccc2cc1Oc1ccc(cc1)C[C@H]1c3cc(c(OC)cc3CCN1C)Oc1c(OC)c(OC)cc3c1[C@H](C2)N(C)CC3
T/C (dose: 100.0 mg/kg/injection, schedule: Q01DX010 (sc), vehicle: saline with Tween-80): 115 % of control
T/C (dose: 200.0 mg/kg/injection, schedule: Q01DX010 (sc), vehicle: saline with Tween-80): 42 % of control
T/C (dose: 400.0 mg/kg/injection, schedule: Q01DX010 (sc), vehicle: saline with Tween-80): 83 % of control
T/C (dose: 800.0 mg/kg/injection, schedule: Q01DX010 (sc), vehicle: saline with Tween-80): 44 % of control

CC1/C=C/C=C/CC/C=C/C=C/C=C/C=C/C(OC2OC(C)C(O)C(N)C2O)CC2OC(CC(O)C(O)CCC(O)CC(O)CC(O)CC(=O)OC(C)C(C)C1O)CC(O)C2C(=O)O (centres undefined)
T/C (dose: 150.0 mg/kg/injection, schedule: Q04DX003 (ip), vehicle: saline with Tween-80): 59 % of control
T/C (dose: 300.0 mg/kg/injection, schedule: Q04DX003 (ip), vehicle: saline with Tween-80): 55 % of control

O=C(O)CC(NC(=O)CP(=O)(O)O)C(=O)O.[NH-]C1CCCCC1[NH-].[Pt+2] (centres undefined)
T/C (dose: 12.5 mg/kg/injection, schedule: Q04DX003 (sc), vehicle: dextrose): 175 % of control
T/C (dose: 25.0 mg/kg/injection, schedule: Q04DX003 (sc), vehicle: dextrose): 43 % of control and 62 % of control
T/C (dose: 100.0 mg/kg/injection, schedule: Q04DX003 (sc), vehicle: dextrose): 12 % of control

N=C(N)SCc1c2ccccc2c(CSC(=N)N)c2ccccc12
T/C (dose: 300.0 mg/kg/injection, schedule: Q04DX003 (sc), vehicle: suspension in saline): 93 % of control
T/C (dose: 600.0 mg/kg/injection, schedule: Q04DX003 (sc), vehicle: suspension in saline): 152 % of control
T/C (dose: 1200.0 mg/kg/injection, schedule: Q04DX003 (sc), vehicle: suspension in saline): 112 % of control
T/C (dose: 2400.0 mg/kg/injection, schedule: Q04DX003 (sc), vehicle: suspension in saline): 89 % of control

Nc1nc(=O)n(C2OC(CO)C(O)C2O)cc1F (centres undefined)
T/C [4]: 103 % of control
T/C [5]: 77 % of control
T/C [6]: 81 % of control
T/C [7]: 32 % of control

C/C=C(\C)c1cc(=O)c2c(C)cc3c(c2o1)C(=O)c1c(O)c(C2CC(C)(N(C)C)C(O)C(C)O2)cc(C2CC(N(C)C)C(O)C(C)O2)c1C3=O (centres undefined)
T/C (dose: 2.0 mg/kg/injection, schedule: Q04DX003 (sc), vehicle: saline): 41 % of control
T/C (dose: 4.0 mg/kg/injection, schedule: Q04DX003 (sc), vehicle: saline): 24 % of control
T/C (dose: 8.0 mg/kg/injection, schedule: Q04DX003 (sc), vehicle: saline): 28 % of control

Clc1cc(Cl)c(C[N+]23CN4CN(CN(C4)C2)C3)cc1Cl
T/C [8]: 106 % of control
T/C [9]: 120 % of control
T/C (dose: 150.0 mg/kg/injection, schedule: Q04DX003 (sc), vehicle: saline with Tween-80): 110 % of control
T/C [4]: 169 % of control

CC(=O)c1cccc(NC2C(N)C(NC(=O)N(C)C)(C(C)O)C(C)(O)C2(O)COC(=O)c2c(C)cccc2O)c1 (centres undefined)
T/C (dose: 6.25 mg/kg/injection, schedule: Q04DX003 (ip), vehicle: suspension in saline): 62 % of control
T/C (dose: 12.5 mg/kg/injection, schedule: Q04DX003 (ip), vehicle: suspension in saline): 85 % of control
T/C (dose: 25.0 mg/kg/injection, schedule: Q04DX003 (ip), vehicle: suspension in saline): 34 % of control

OC1CCCC2CCCNC12 (centres undefined)
T/C [8]: 76 % of control
T/C [9]: 85 % of control

C/C=C/C=C/c1cc2cc3c(c(O)c2c(=O)[nH]1)C1(CC3)C(O)=c2c(=O)c3c(=O)cc(OC)c(=O)c=3c(=O)c2=C1O (centres undefined)
T/C (dose: 8.0 mg/kg/injection, schedule: Q01DX010 (sc), vehicle: DMSO): 122 % of control
T/C (dose: 16.0 mg/kg/injection, schedule: Q01DX010 (sc), vehicle: DMSO): 91 % of control

O=c1s[se]c2ccccc12
T/C [10]: 55 % of control
T/C [1]: 55 % of control

COc1cc2cc(c1Cl)N(C)C(=O)C[C@H](OC(=O)[C@H](C)N(C)C(C)=O)[C@]1(C)O[C@H]1[C@H](C)[C@@H]1C[C@@](O)(NC(=O)O1)[C@H](OC)C=C/C=C(\C)C2
T/C (dose: 50.0 micrograms/kg/injection, schedule: Q01DX010 (sc), vehicle: Klucel (hydroxypropylcellulose) (HPC)): 99 % of control
T/C (dose: 100.0 micrograms/kg/injection, schedule: Q01DX010 (sc), vehicle: Klucel (hydroxypropylcellulose) (HPC)): 67 % of control
T/C (dose: 200.0 micrograms/kg/injection, schedule: Q01DX010 (sc), vehicle: Klucel (hydroxypropylcellulose) (HPC)): -74 % of control

CCCCCCCC(=O)N/N=C(\CO)[C@]1(O)Cc2c(O)c3c(c(O)c2[C@@H](OC2CC(N)C(O)C(C)O2)C1)C(=O)c1c(OC)cccc1C3=O (some centres undefined)
T/C (dose: 25.0 mg/kg/injection, schedule: Q01DX010 (sc), vehicle: water): 227 % of control
T/C (dose: 50.0 mg/kg/injection, schedule: Q01DX010 (sc), vehicle: water): 230 % of control
T/C (dose: 100.0 mg/kg/injection, schedule: Q01DX010 (sc), vehicle: water): 370 % of control

OCC1OC(n2cnc3cncnc32)C(O)C1O (centres undefined)
T/C (dose: 12.5 mg/kg/injection, schedule: Q04DX003 (sc), vehicle: saline): 90 % of control
T/C (dose: 25.0 mg/kg/injection, schedule: Q04DX003 (sc), vehicle: saline): 106 % of control
T/C (dose: 50.0 mg/kg/injection, schedule: Q04DX003 (sc), vehicle: saline): 78 % of control

CCCCCCCC(=O)[O][Hg][CH2]C1COC([CH2][Hg][O]C(=O)CCCCCCC)CO1 (centres undefined)
T/C [4]: 58 % of control
T/C [5]: 70 % of control
T/C [6]: 50 % of control
T/C [7]: 36 % of control

CCCCCC[C@H]([C@H](C)O)n1cnc2c(N)ncnc21
T/C (dose: 50.0 mg/kg/injection, schedule: Q01DX010 (sc), vehicle: Klucel (hydroxypropylcellulose) (HPC)): 43 % of control
T/C (dose: 100.0 mg/kg/injection, schedule: Q01DX010 (sc), vehicle: Klucel (hydroxypropylcellulose) (HPC)): 116 % of control
T/C (dose: 200.0 mg/kg/injection, schedule: Q01DX010 (sc), vehicle: Klucel (hydroxypropylcellulose) (HPC)): 94 % of control

N#CN=[N+]([O-])c1ccc(C(=O)O)cc1
T/C (dose: 11.25 mg/kg/injection, schedule: Q04DX003 (sc), vehicle: Klucel (hydroxypropylcellulose) (HPC)): 124 % of control
T/C (dose: 22.5 mg/kg/injection, schedule: Q04DX003 (sc), vehicle: Klucel (hydroxypropylcellulose) (HPC)): 87 % of control
T/C (dose: 45.0 mg/kg/injection, schedule: Q04DX003 (sc), vehicle: Klucel (hydroxypropylcellulose) (HPC)): 103 % of control

c1ccc2c(c1)[As]=c1ccccc1=[As]2 (centres undefined)
T/C (dose: 150.0 mg/kg/injection, schedule: Q04DX003 (sc), vehicle: saline): 116 % of control
T/C (dose: 300.0 mg/kg/injection, schedule: Q04DX003 (sc), vehicle: saline): 118 % of control
T/C (dose: 600.0 mg/kg/injection, schedule: Q04DX003 (sc), vehicle: saline): 99 % of control

CCc1ccc(C2=C(O)C(=O)C(c3ccccc3)=C(O)C2=O)cc1
T/C [10]: 100 % of control
T/C [1]: 100 % of control
T/C [2]: 77 % of control

CC[As](=O)(O)CC
T/C [3]: 96 % of control
T/C (dose: 200.0 mg/kg/injection, schedule: Q04DX003 (sc), vehicle: saline): 88 % of control
